Assays:
Type in all cases: cell-based, Choristoneura fumiferana
[1] = tested on: GAL4:CfEcR-DEF/VP16:LmUSP-EF; assay: Luciferase reporter gene induction in stably transfected CHO cells (pFRLuc); conditions: stable clone 1A2, CHO cells, 0, 1, 5, or 25 μM ligand, 48 hours, maximum fold induction
Excerpt: This Example describes the construction of host cells comprising the EcR/invertebrate RXR-based gene expression modulation system according to the invention. To make stable cells expressing GAL4:CfEcR-DEF/VP16:LmUSP-EF (switch 1.18, prepared as described in Example 1), Applicants transfected the gene expression cassettes encoding the hybrid GAL4:CfEcR-DEF and VP16:LmUSP-EF polypeptides into Chinese hamster ovary CHO cells comprising a stably transfected reporter plasmid pFRLuc. […] The cells were harvested and reporter activity was assayed.
The transfected CHO cells were grown in the presence of 0, 1, 5, or 25 μM PonA steroid ligand or GS™-E non-steroid ligand for 48 hours. The cells were harvested, lysed and the reporter activity was measured. Total fly luciferase relative light units (RLU) are presented. The numbers on the top of the bars correspond to the maximum fold induction for each treatment. Bulk populations of cells were selected for resistance to the antibiotic neomycin (VP16:LmUSP/VP16:RXR constructs have the neomycin resistance gene incorporated). Several clones from each population were isolated by end point dilution. Three clones of stably transfected GAL4:CfEcR-DEF/VP16:LmUSP-EF cells were analyzed (see FIG. 10, clone 1A2; the data related to the two other clones are not shown).

CfEcR/LmUSP-based switch = assay: Luciferase reporter induction by two-hybrid switches transfected into NIH3T3 cells; conditions: non-steroid compared with steroid PonA, 0, 1, 5 or 25 μM, 48 hours
Method: (§1) Transfections: DNAs corresponding to the various switch constructs outlined in Example 1, specifically switches 1.1 through 1.8, were transfected into mouse NIH3T3 cells (ATCC) as follows. […] For 12-well plates, 4 μl of Superfect™ was mixed with 100 μl of growth medium. […] The cells were harvested and reporter activity was assayed. […] Ligands: The steroidal ligand Ponasterone A (PonA) was purchased from Sigma Chemical Company. […] Reporter Assays: Cells were harvested 48 hours after adding ligands. […] Twenty μl of lysate were assayed. […] In addition, LmUSP worked better than vertebrate RXR as a CfEcR partner. In particular, both the sensitivity, i.e. the concentration of ligand required for transactivation, and the magnitude of transactivation were increased with LmUSP compared to vertebrate RXR. […]
Briefly, full-length EcR and truncated EcRs, created by a truncation mutation at the junctions of A/B, C, D, E and F domains and fused to a GAL4 DNA binding domain encoding polynucleotide (SEQ ID NO: 33) as described in Example 1 above. […] The cells were harvested, lysed and luciferase reporter activity was measured in the cell lysates. […] The analysis was performed in triplicate and mean luciferase counts [total relative light units (RLU)] were determined as described above.

[2] = tested on: GAL4CfEcR-DEF/VP16LmUSP-EF (switch 1.18); assay: Effect of a second ligand on transactivation of the gene switch with pFRLuc in NIH3T3 cells; conditions: non-steroid ligand 1 μM or less, absence of 9-Cis-retinoic acid, 48 hours
Method: as §1
In particular, Applicants have determined the effect of 9-cis-retinoic acid on the transactivation potential of the GAL4CfEcR-DEF/VP16LmUSP-EF (switch 1.18) gene switch along with pFRLuc in NIH3T3 cells in the presence of non-steroid (GSE) for 48 hours.
Briefly, GAL4CfEcR-DEF, pFRLuc and VP16LmUSP-EF were transfected into NIH3T3 cells and the transfected cells were treated with 0, 0.04, 0.2, 1, 5 and 25 μM non-steroidal ligand (GSE) and 0, 1, 5 and 25 μM 9-Cis-retinoic acid (Sigma Chemical Company). The reporter activity was measured at 48 hours after adding ligands.

Row | Compound | fold induction [1] [fold] | sensitivity of the switch to ligand (CfEcR/LmUSP-based switch) | induction of reporter activity [2]
1 | CC(C)CC[C@@H](O)[C@](C)(O)[C@H]1CC[C@@]2(O)C3=CC(=O)[C@@H]4C[C@@H](O)[C@@H](O)C[C@]4(C)[C@H]3CC[C@]12C [PonA, Ponasterone A] | 42 | – | –
2 | CCc1c(OC)cccc1C(=O)NN(C(=O)c1cc(C)cc(C)c1)C(C)(C)C [non-steroidal ligand, N-(2-ethyl-3-methoxybenzoyl)-N′-(3,5-dimethylbenzoyl)-N′-t-butylhydrazine] | 162 | more sensitive | very little induction

— US9493540B2, “Ecdysone receptor/invertebrate retinoid X receptor-based inducible gene expression system” (Intrexon Corporation, priority 2001, dated 2016)
